Data on 29 compounds can be found in US20240400555A1 (Initial Therapeutics, Inc., priority 2023, published 2024).

Structures are written as SMILES. A value given as a limit tells only on which side of the number the result lay.

For orientation: IC50 means the point on the concentration scale where inhibition reaches its midpoint.

The subject of the assay is MV-4-11 cells. The assay can be described thus: Cell Viability Assay in MV-4-11 Cells. The assay is classed as cell-based. Conditions: Homo sapiens, MV4-11, 72 h, MV-4-11 cells, 72 h, Cell-Titer Glo; read-out: IC50. The essentials: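 MV-4-11 cells at 7,000/well in IMDM with 10% FBS, exposed to compound for 72 h. Viability by CellTiter-Glo luminescence, normalized to DMSO as 100%, fitted with a four-parameter curve.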
For the compound `CCn1cc(-c2ccc(C(=O)N(c3nccc4cc(F)cc(C)c34)[C@@H]3CCCNC3)c(F)c2)nn1` [Example 712, 4-(1-ethyltriazol-4-yl)-2-fluoro-N-(6-fluoro-8-methyl-1-isoquinolyl)-N-[(3R)-3-piperidyl]benzamide], the IC50 was 53 nM.
As for `CCN1CCN(c2ccnc(Nc3ccc(C(=O)N(c4nccc5cccc(C)c45)[C@@H]4CCCNC4)c(F)c3)n2)CC1` [Example 713, (R)-4-((4-(4-ethylpiperazin-1-yl)pyrimidin-2-yl)amino)-2-fluoro-N-(8-methylisoquinolin-1-yl)-N-(piperidin-3-yl)benzamide], the figure is 82 nM.
In the case of `Cc1cccc2ccnc(N(C(=O)c3ccc(Nc4nccc(N5CCC(N(C)C)CC5)n4)cc3F)[C@@H]3CCCNC3)c12` [Example 714, (R)-4-((4-(4-(dimethylamino)piperidin-1-yl)pyrimidin-2-yl)amino)-2-fluoro-N-(8-methylisoquinolin-1-yl)-N-(piperidin-3-yl)benzamide], the IC50 was 230 nM.
As for `Cc1cccc2ccnc(N(C(=O)c3ccc(Nc4nccc(N5CCC(N6CCCC6)CC5)n4)cc3F)[C@@H]3CCCNC3)c12` [Example 715, (R)-2-fluoro-N-(8-methylisoquinolin-1-yl)-N-(piperidin-3-yl)-4-((4-(4-(pyrrolidin-1-yl)piperidin-1-yl)pyrimidin-2-yl)amino)benzamide], the figure is 230 nM.
For `COC1CCN(c2ccnc(Nc3ccc(C(=O)N(c4nccc5cccc(C)c45)[C@@H]4CCCNC4)c(F)c3)n2)CC1` [Example 716, (R)-2-fluoro-4-((4-(4-methoxypiperidin-1-yl)pyrimidin-2-yl)amino)-N-(8-methylisoquinolin-1-yl)-N-(piperidin-3-yl)benzamide], the IC50 came out at 34 nM.
Consider `Cc1cccc2ccnc(N(C(=O)c3ccc(Nc4nccc(N5CCC(O)CC5)n4)cc3F)[C@@H]3CCCNC3)c12` [Example 717, (R)-2-fluoro-4-((4-(4-hydroxypiperidin-1-yl)pyrimidin-2-yl)amino)-N-(8-methylisoquinolin-1-yl)-N-(piperidin-3-yl)benzamide], for which the IC50 was 30 nM.
Next, `Cc1cccc2ccnc(N(C(=O)c3ccc(Nc4nccc(N5CCNCC5)n4)cc3F)[C@@H]3CCCNC3)c12` [Example 718, (R)-2-fluoro-N-(8-methylisoquinolin-1-yl)-4-((4-(piperazin-1-yl)pyrimidin-2-yl)amino)-N-(piperidin-3-yl)benzamide]: 180 nM.
Next, `Cc1cccc2ccnc(N(C(=O)c3ccc(Nc4nccc(N5CCC(=O)CC5)n4)cc3F)[C@@H]3CCCNC3)c12` [Example 719, (R)-2-fluoro-N-(8-methylisoquinolin-1-yl)-4-((4-(4-oxopiperidin-1-yl)pyrimidin-2-yl)amino)-N-(piperidin-3-yl)benzamide]: 14 nM.
Next, `Cc1cccc2ccnc(N(C(=O)c3ccc(Nc4nccc(-c5ccc(N)nc5)n4)cc3F)[C@@H]3CCCNC3)c12` [Example 720, (R)-4-((4-(6-aminopyridin-3-yl)pyrimidin-2-yl)amino)-2-fluoro-N-(8-methylisoquinolin-1-yl)-N-(piperidin-3-yl)benzamide]: 55 nM.
On to `Cc1cccc2ccnc(N(C(=O)c3ccc(Nc4nccc(-c5ccc(O)cc5)n4)cc3F)[C@@H]3CCCNC3)c12` [Example 721, (R)-2-fluoro-4-((4-(4-hydroxyphenyl)pyrimidin-2-yl)amino)-N-(8-methylisoquinolin-1-yl)-N-(piperidin-3-yl)benzamide], for which the IC50 is 140 nM.
Turning to `Cc1cccc2ccnc(N(C(=O)c3ccc(Nc4nccc(-n5cncn5)n4)cc3F)[C@@H]3CCCNC3)c12` [Example 722, (R)-4-((4-(1H-1,2,4-triazol-1-yl)pyrimidin-2-yl)amino)-2-fluoro-N-(8-methylisoquinolin-1-yl)-N-(piperidin-3-yl)benzamide], the IC50 was 160 nM.
As for `Cc1cccc2ccnc(N(C(=O)c3ccc(Nc4nccc(-n5cccn5)n4)cc3F)[C@@H]3CCCNC3)c12` [Example 723, (R)-4-((4-(1H-pyrazol-1-yl)pyrimidin-2-yl)amino)-2-fluoro-N-(8-methylisoquinolin-1-yl)-N-(piperidin-3-yl)benzamide], the figure is 81 nM; as for `Cc1cccc2ccnc(N(C(=O)c3ccc(Nc4nccc(-n5ccnc5)n4)cc3F)[C@@H]3CCCNC3)c12` [Example 724, (R)-4-((4-(1H-imidazol-1-yl)pyrimidin-2-yl)amino)-2-fluoro-N-(8-methylisoquinolin-1-yl)-N-(piperidin-3-yl)benzamide], 56 nM.
For the compound `Cc1nnc(-c2ccc(C(=O)N(c3nccc4cc(F)cc(C)c34)C3CCCNC3)cc2)s1` (centres unmarked) [Example 725, N-(6-fluoro-8-methyl-1-isoquinolyl)-4-(5-methyl-1,3,4-thiadiazol-2-yl)-N-(3-piperidyl)benzamide], the IC50 was 210 nM.
As for `CNc1cccnc1Nc1ccc(C(=O)N(c2nccc3cccc(C)c23)[C@@H]2CCCNC2)c(F)c1` [Example 726, (R)-2-fluoro-4-((3-(methylamino)pyridin-2-yl)amino)-N-(8-methylisoquinolin-1-yl)-N-(piperidin-3-yl)benzamide], the IC50 was 1900 nM.
`Cc1cccc2ccnc(N(C(=O)c3ccc(Nc4nccc(-c5cccnc5)n4)cc3F)[C@@H]3CCCNC3)c12` [Example 727, (R)-2-fluoro-N-(8-methylisoquinolin-1-yl)-N-(piperidin-3-yl)-4-((4-(pyridin-3-yl)pyrimidin-2-yl)amino)benzamide]: the half-maximal inhibitory concentration (IC50) was 32 nM.
Next, `Cc1cccc2ccnc(N(C(=O)c3ccc(Nc4nccc(-c5ccccn5)n4)cc3F)[C@@H]3CCCNC3)c12` [Example 728, (R)-2-fluoro-N-(8-methylisoquinolin-1-yl)-N-(piperidin-3-yl)-4-((4-(pyridin-2-yl)pyrimidin-2-yl)amino)benzamide]: 86 nM.
For the compound `COCCn1nc(C)cc1-c1ccc(C(=O)N(c2nccc3cc(F)cc(C)c23)[C@@H]2CCCNC2)nc1` [Example 729, (R)—N-(6-fluoro-8-methylisoquinolin-1-yl)-5-(1-(2-methoxyethyl)-3-methyl-1H-pyrazol-5-yl)-N-(piperidin-3-yl)picolinamide], the IC50 was over 6500 nM.
Next, `CCc1nnc(-c2ccc(C(=O)N(c3nccc4cc(Cl)cc(C)c34)[C@@H]3CCCNC3)nc2)s1` [Example 730, (R)—N-(6-chloro-8-methylisoquinolin-1-yl)-5-(5-ethyl-1,3,4-thiadiazol-2-yl)-N-(piperidin-3-yl)picolinamide]: 260 nM; `COC/C=C(\Cl)c1ccnc(Nc2ccc(C(=O)N(c3nccc4cccc(C)c34)[C@@H]3CCCNC3)c(F)c2)n1` [Example 731, (R)-4-((4-(1-chloro-3-methoxyprop-1-en-1-yl)pyrimidin-2-yl)amino)-2-fluoro-N-(8-methylisoquinolin-1-yl)-N-(piperidin-3-yl)benzamide]: 120 nM; `Cc1ncc(-c2cc(C)c3c(N(C(=O)c4ccc(-c5nnc(C)s5)cc4F)[C@@H]4CCCNC4)nccc3c2)s1` [Example 732, 2-fluoro-N-[8-methyl-6-(2-methylthiazol-5-yl)-1-isoquinolyl]-4-(5-methyl-1,3,4-thiadiazol-2-yl)-N-[(3R)-3-piperidyl]benzamide]: 49 nM.
Next, `Cc1cccc2ccnc(N(C(=O)c3ccc(Nc4nccc(NCCO)n4)cc3F)[C@@H]3CCCNC3)c12` [Example 734, (R)-2-fluoro-4-((4-((2-hydroxyethyl)amino)pyrimidin-2-yl)amino)-N-(8-methylisoquinolin-1-yl)-N-(piperidin-3-yl)benzamide]: 81 nM.
Next, `Cc1cccc2ccnc(N(C(=O)c3ccc(Nc4nccc(O)n4)cc3F)[C@@H]3CCCNC3)c12` [Example 735, (R)-2-fluoro-4-((4-hydroxypyrimidin-2-yl)amino)-N-(8-methylisoquinolin-1-yl)-N-(piperidin-3-yl)benzamide]: over 6200 nM.
Consider `Cc1cccc2ccnc(N(C(=O)c3ccc(Nc4nccc(CCO)n4)cc3F)[C@@H]3CCCNC3)c12` [Example 736, (R)-2-fluoro-4-((4-(2-hydroxyethyl)pyrimidin-2-yl)amino)-N-(8-methylisoquinolin-1-yl)-N-(piperidin-3-yl)benzamide], for which the IC50 was 220 nM.
As for `Cc1cc(C2=NOC(C)(C)C2=O)ccc1C(=O)N(c1nccc2sc(C#CCO)cc12)[C@@H]1CCCNC1` [Example 737, (R)-4-(5,5-dimethyl-4-oxo-4,5-dihydroisoxazol-3-yl)-N-(2-(3-hydroxyprop-1-yn-1-yl)thieno[3,2-c]pyridin-4-yl)-2-methyl-N-(piperidin-3-yl)benzamide], the figure is 2100 nM; as for `O=C(c1ccc(Nc2ncccn2)cc1F)N(c1nccc2cc(Nc3ncccn3)ccc12)[C@@H]1CCCNC1` [Example 738, (R)-2-fluoro-N-(piperidin-3-yl)-4-(pyrimidin-2-ylamino)-N-(6-(pyrimidin-2-ylamino)isoquinolin-1-yl)benzamide], 3700 nM.
As for `Cc1cc2c(N(C(=O)c3ccc(-n4nnc5cccnc54)cc3F)[C@@H]3CCCNC3)nccc2s1` [Example 739, (R)-4-(3H-[1,2,3]triazolo[4,5-b]pyridin-3-yl)-2-fluoro-N-(2-methylthieno[3,2-c]pyridin-4-yl)-N-(piperidin-3-yl)benzamide], the figure is 650 nM; as for `O=C(c1ccc(-n2nnc3cccnc32)cc1F)N(c1nccc2sc(C3CC3)cc12)[C@@H]1CCCNC1` [Example 740, (R)-4-(3H-[1,2,3]triazolo[4,5-b]pyridin-3-yl)-N-(2-cyclopropylthieno[3,2-c]pyridin-4-yl)-2-fluoro-N-(piperidin-3-yl)benzamide], 600 nM; as for `Cc1cccc2ccnc(N(C(=O)c3ccc(Nc4nccc(CN5CCOCC5)n4)cc3F)[C@@H]3CCCNC3)c12` [Example 741, (R)-2-fluoro-N-(8-methylisoquinolin-1-yl)-4-((4-(morpholinomethyl)pyrimidin-2-yl)amino)-N-(piperidin-3-yl)benzamide], 310 nM.
